# Source: paper PMC4445328, “Azasugar inhibitors as pharmacological chaperones for Krabbe disease” (Chemical Science, 2015)
# Where two headings read alike, the source gives them in different places.
# Key:
# [1] = target: T1, β-galactocerebrosidase (GALC) (Mus musculus, UniProt P54818); experiment: GALC enzyme inhibition kinetics, Ki determination with chromogenic substrate 4NβDG; assay type: biochemical; details: for Ki: pH 4.6, substrate 4-nitrophenyl-β-D-galactopyranoside, steady-state, competitive inhibition model; for times more potent inhibitors of GALC than pyrrolidine DIL and lactam IGL: pH 4.6, ratio of Ki values
# T1 construct: made in house
# T1 sequence (P54818 43-684): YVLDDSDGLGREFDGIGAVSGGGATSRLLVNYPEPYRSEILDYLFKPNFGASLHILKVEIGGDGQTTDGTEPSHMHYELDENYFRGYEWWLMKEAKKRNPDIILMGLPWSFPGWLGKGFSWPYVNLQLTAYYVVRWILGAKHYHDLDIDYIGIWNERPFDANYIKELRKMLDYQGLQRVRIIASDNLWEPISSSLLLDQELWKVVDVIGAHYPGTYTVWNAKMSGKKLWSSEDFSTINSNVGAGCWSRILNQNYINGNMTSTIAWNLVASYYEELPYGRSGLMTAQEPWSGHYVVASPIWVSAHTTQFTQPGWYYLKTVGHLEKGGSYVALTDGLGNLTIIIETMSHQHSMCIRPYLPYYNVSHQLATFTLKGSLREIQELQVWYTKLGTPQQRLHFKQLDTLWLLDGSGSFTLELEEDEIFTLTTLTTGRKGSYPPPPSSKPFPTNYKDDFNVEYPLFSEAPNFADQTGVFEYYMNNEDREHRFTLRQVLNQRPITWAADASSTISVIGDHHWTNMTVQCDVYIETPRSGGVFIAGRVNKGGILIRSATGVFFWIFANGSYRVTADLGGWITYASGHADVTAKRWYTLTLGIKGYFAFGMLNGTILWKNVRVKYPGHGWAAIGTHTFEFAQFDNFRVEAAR
# [2] = target: T2, GALC (Mus musculus, UniProt P54818); experiment: Differential scanning fluorimetry (DSF) thermal shift of wild-type GALC; assay type: binding; details: for ΔTm at 5000 µM / ΔTm1 pH 7.4 (first transition of double sigmoid melt curve) / ΔTm2 pH 7.4 (second transition of double sigmoid melt curve): 5.0 mM compound; for ΔTm at 5000 µM: triplicate; for additional increase of Tm over DGJ, DIL and IGL / increase of Tm of wild-type enzyme: pH 4.6, 5 mM; for ΔTm1 pH 7.4 (first transition of double sigmoid melt curve) / ΔTm2 pH 7.4 (second transition of double sigmoid melt curve): PBS pH 7.4
# T2 construct: made in house
# T2 sequence (P54818 43-684): T1 sequence (P54818 43-684)
# [3] = set-up: method as in PMID 11891910; details: cited from earlier work
# [4] = pKaH and protonation state of azasugars; assay type: physicochemical; details: pH 7.4, from pKaH
# [5] = target: T3, GALC E258Q (Mus musculus, UniProt P54818, E274Q); experiment: DSF thermal shift of GALC E258Q mutant; assay type: binding; details: pH 7.4 PBS, 10 mM compound
# T3 construct: made in house
# T3 sequence (P54818 41-684 E274Q limits assumed): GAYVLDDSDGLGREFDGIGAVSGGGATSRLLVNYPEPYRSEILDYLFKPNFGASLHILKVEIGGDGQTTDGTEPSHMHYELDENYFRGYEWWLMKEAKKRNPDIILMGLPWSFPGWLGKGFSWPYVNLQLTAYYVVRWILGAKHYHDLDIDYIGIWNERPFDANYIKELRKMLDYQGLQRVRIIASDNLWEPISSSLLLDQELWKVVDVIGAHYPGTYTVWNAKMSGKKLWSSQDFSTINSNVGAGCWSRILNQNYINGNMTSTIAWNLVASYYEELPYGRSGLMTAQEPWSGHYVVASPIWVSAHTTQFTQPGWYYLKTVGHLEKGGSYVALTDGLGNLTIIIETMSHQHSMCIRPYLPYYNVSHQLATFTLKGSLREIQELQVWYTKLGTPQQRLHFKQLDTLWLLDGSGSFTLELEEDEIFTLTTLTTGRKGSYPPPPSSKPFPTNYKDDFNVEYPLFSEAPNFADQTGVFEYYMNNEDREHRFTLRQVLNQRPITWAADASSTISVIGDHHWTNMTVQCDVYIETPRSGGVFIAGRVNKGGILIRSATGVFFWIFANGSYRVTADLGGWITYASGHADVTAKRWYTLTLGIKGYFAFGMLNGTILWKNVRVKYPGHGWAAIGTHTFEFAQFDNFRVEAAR
# Source text: All molecules form stabilizing hydrogen bonds with the side chain of E258 in the active site (Fig. 8A). […] Thus E258 O^ε2 could be forming a tight electrostatic interaction with the charged nitrogen in the ring of these molecules. Mutation of E258 to glutamine allows for the maintenance of a hydrogen bond but not an electrostatic interaction. We expressed and purified the E258Q mutant and repeated the DSF experiments at both pH 4.6 and pH 7.4. The importance of this interaction between E258 and the candidate chaperone molecules is highlighted by the complete loss of stabilization of GALC E258Q at pH 4.6 by all molecules except lactam IGL, which is incapable of forming a salt bridge (Fig. 8B). At pH 7.4, the global stability conferred by piperidine IGF to the E258Q mutant has lost the double sigmoid features seen for the wild-type GALC at pH 7.4 (Fig. 4A and 8C). […] To further understand the nature of the GALC–IGF interaction that is conferring the double melt curve we carried out DSF experiments at a range of pH values. […]
# DSF experiments were performed in 48-well plates, 50 μL reactions comprised 5.0 μg GALC and 5× SyPRO Orange dye in either PBS pH 7.4, 20 mM Tris pH 7.4 or 20 mM sodium acetate pH 4.6. […] SyPRO fluorescence was monitored on the HEX channel. […] Stabilization is expressed as the ΔT m compared to a protein-only control. […]
# [6] = target: T2, GALC; experiment: GALC crystal soaks, X-ray ligand binding in the active site; details: 20 mM ligand crystal soak; non-binders repeated for 1 hour and overnight
# [7] = 50 mM, Fig. S2, pH 4.6 and pH 7.4
# [8] = PBS pH 7.4, mean ± SEM, read-out: ΔTm pH 7.4
# [9] = sodium acetate pH 4.6, mean ± SEM, read-out: ΔTm pH 4.6
smiles,measurement,setting,value
"OC[C@H]1OC(O)[C@H](O)[C@@H](O)[C@H]1O (mixture of isomers) [galactose, reference compound]",Ki,[1],7200 µM
same,stabilization of GALC,[2]; [7],no stabilization
"O=CC[C@@H](O)[C@@H](O)[C@H](O)CO [2-deoxy-galactose, reference compound]",stabilization of GALC,[2]; [7],no stabilization
"OC[C@H]1NNC[C@@H](O)[C@H]1O [AGF, aza-galacto-fagomine]",times more potent inhibitors of GALC than pyrrolidine DIL and lactam IGL,[1],greater than 80 times
same,Ki,[1],0.63 ± 0.053 µM
same,pKaH,[3],5.7
same,molecules possessing a positive charge at pH 7.4,[4],2%
same,ΔTm at 5000 µM,[2]; [8],4.6 °C
same,ΔTm at 5000 µM,[2]; [9],16.4 °C
same,"additional increase of Tm over DGJ, DIL and IGL",[2],8–9 degrees
"OCC1NCC(O)C(O)C1O (stereo not shown) [DGJ, 1-deoxy-galacto-nojirimycin, reference compound]",ΔTm at 5000 µM,[2]; [8],5.2 °C
same,increase of Tm of wild-type enzyme,[2],6–8 degrees
"OCC1C2CCC(N2)C(O)C1O (stereo not shown) [DGN, deoxy-galacto-noeurostegine]",ΔTm at 5000 µM,[2]; [8],-3.6 ± 0.1 °C
same,ΔTm at 5000 µM,[2]; [9],1 °C
same,effect on global stability of wild-type GALC,[2]; pH 7.4,destabilized GALC
OC[C@H]1NC[C@@H](O)[C@H]1O [DIL],Ki,[1],130 ± 6 µM
same,ΔTm at 5000 µM,[2]; [8],4 °C
same,ΔTm at 5000 µM,[2]; [9],7.2 °C
same,increase of Tm of wild-type enzyme,[2],6–8 degrees
"OC[C@H]1NC[C@H](O)[C@@H](O)[C@@H]1O [DNJ, 1-deoxynojirimycin, reference compound]",stabilization of GALC,"[2]; up to 10 mM, either pH (4.6 or 7.4), Fig. S2",unable to stabilize GALC
"OC[C@H]1CNC[C@@H](O)[C@H]1O [IGF, iso-galacto-fagomine]",times more potent inhibitors of GALC than pyrrolidine DIL and lactam IGL,[1],greater than 80 times
same,Ki,[1],0.38 ± 0.026 µM
same,pKaH,[3],8.8
same,molecules possessing a positive charge at pH 7.4,[4],96%
same,ΔTm1 pH 7.4 (first transition of double sigmoid melt curve),[2],4 °C
same,ΔTm2 pH 7.4 (second transition of double sigmoid melt curve),[2],21 °C
same,ΔTm1 pH 7.4 (first transition of double sigmoid melt curve),[2]; listed as IGF1,+4.0 ± 0.3 °C
same,ΔTm2 pH 7.4 (second transition of double sigmoid melt curve),[2]; listed as IGF2,+21.0 ± 0.2 °C
same,ΔTm at 5000 µM,[2]; [9],17.7 °C
same,"additional increase of Tm over DGJ, DIL and IGL",[2],8–9 degrees
same,higher Tm2 with GALC E258Q,[5],abolished
"O=C1NC[C@H](CO)[C@H](O)[C@@H]1O [IGL, iso-galacto-fagomine lactam]",Ki,[1],52 ± 3 µM
same,ΔTm at 5000 µM,[2]; [8],1.6 °C
same,ΔTm at 5000 µM,[2]; [9],8.1 °C
same,increase of Tm of wild-type enzyme,[2],6–8 degrees
"CN1[C@@H](CC(=O)c2ccccc2)CCC[C@H]1C[C@H](O)c1ccccc1 [α-lobeline, reference compound]",change in Tm,"[2]; either pH (4.6 or 7.4), data not shown",No change in T m
same,binding in GALC crystals (difference electron density in active site),[6],not observed to bind
